Columns and labels:
Suncus murinus [1] = experiment: Effect on number of vomiting episodes at dose 16 ug/Kg administered ip; assay type: functional
Suncus murinus [2] = experiment: Effect on latency at dose 16 ug/Kg administered po; assay type: functional
Suncus murinus [3] = experiment: Effect on latency at dose 8 ug/Kg administered po; assay type: functional
Suncus murinus [4] = experiment: Effect on number of suncus vomited at dose 8 ug/Kg administered po (out of 5); assay type: functional
Suncus murinus [5] = experiment: Effect on number of suncus vomited at dose 32 ug/Kg administered po (out of 5); assay type: functional
Suncus murinus [6] = experiment: Effect on number of vomiting episodes at dose 32 ug/Kg administered po; assay type: functional
Suncus murinus [7] = experiment: Effect on number of vomiting episodes at dose 16 ug/Kg administered po; assay type: functional
Suncus murinus [8] = experiment: Effect on latency at dose 8 ug/Kg administered ip; assay type: functional
Suncus murinus [9] = experiment: Effect on number of suncus vomited at dose 16 ug/Kg administered po (out of 5); assay type: functional
Suncus murinus [10] = experiment: Effect on latency at dose 32 ug/Kg administered po; assay type: functional
Suncus murinus [11] = experiment: Effect on number of suncus vomited at dose 16 ug/Kg administered ip (out of 5); assay type: functional
Suncus murinus [12] = experiment: Effect on number of vomiting episodes at dose 8 ug/Kg administered ip; assay type: functional
Suncus murinus [13] = experiment: Effect on latency at dose 16 ug/Kg administered ip; assay type: functional
Suncus murinus [14] = experiment: Effect on number of suncus vomited at dose 4 ug/Kg administered ip (out of 5); assay type: functional
HEp-2 = experiment: Effect on vacuole response in the HEp-2 cells; assay type: functional, Homo sapiens
Suncus murinus [15] = experiment: Effect on number of suncus vomited at dose 8 ug/Kg administered ip; assay type: functional
Suncus murinus [16] = experiment: Effect on number of suncus vomited at dose 32 ug/Kg administered ip (out of 5); assay type: functional
Suncus murinus [17] = experiment: Effect on number of vomiting episodes at dose 8 ug/Kg administered po; assay type: functional
Suncus murinus [18] = experiment: Effect on number of suncus vomited at dose 4 ug/Kg administered po (out of 5); assay type: functional
Suncus murinus [19] = experiment: Effect on number of vomiting episodes at dose 32 ug/Kg administered ip; assay type: functional
Suncus murinus [20] = experiment: Effect on latency at dose 4 ug/Kg administered ip; assay type: functional
Suncus murinus [21] = experiment: Effect on number of suncus vomited at dose 8 ug/Kg administered ip (out of 5); assay type: functional
Suncus murinus [22] = experiment: Effect on number of vomiting episodes at dose 4 ug/Kg administered ip; assay type: functional
Suncus murinus [23] = experiment: Effect on latency at dose 32 ug/Kg administered ip; assay type: functional
Suncus murinus [24] = experiment: Effect on number of suncus vomited at dose 2 ug/Kg administered ip (out of 3); assay type: functional

SMILES | No. of vomiting episodes (Suncus murinus [1]) | Latency (Suncus murinus [2]) [min] | No. of suncus vomited (Suncus murinus [4]) | No. of vomiting episodes (Suncus murinus [6]) | No. of vomiting episodes (Suncus murinus [7]) | Latency (Suncus murinus [8]) [min] | Latency (Suncus murinus [10]) [min] | No. of suncus vomited (Suncus murinus [11]) | No. of vomiting episodes (Suncus murinus [12]) | Latency (Suncus murinus [13]) [min] | No. of suncus vomited (Suncus murinus [14]) | Vacuole response (HEp-2) [ng/mL] | other results
CC(C)C[C@@H]1OC(=O)[C@H](C(C)C)NC(=O)[C@@H](C(C)C)OC(=O)[C@@H](C)NC(=O)[C@H](CC(C)C)OC(=O)[C@H](C(C)C)NC(=O)[C@@H](C(C)C)OC(=O)[C@@H](C)NC(=O)[C@H](CC(C)C)OC(=O)[C@H](C(C)C)NC(=O)[C@@H](C(C)C)OC(=O)[C@@H](C)NC1=O (stereo in doubt; form 2) | 10.3 | 8.3 | 0 | 7.6 | 6.3 | 7 | 8.2 | 5 | 5 | 6 | 0 | 3 | Latency (Suncus murinus [3]): 6 min; No. of suncus vomited (Suncus murinus [5]): 5; No. of suncus vomited (Suncus murinus [9]): 3; No. of suncus vomited (Suncus murinus [15]): 1
CC(=O)OC[C@@H](C)NC(=O)[C@@H](CC(C)C)OC(=O)[C@@H](NC(=O)[C@@H](OC(=O)[C@@H](C)NC(=O)[C@@H](CC(C)C)OC(=O)[C@@H](NC(=O)[C@@H](OC(=O)[C@@H](C)NC(=O)[C@@H](CC(C)C)OC(=O)[C@@H](NC(=O)[C@@H](OC(C)=O)C(C)C)C(C)C)C(C)C)C(C)C)C(C)C)C(C)C |  |  |  |  |  |  |  |  |  |  |  | >20000 | 
CC(C)C[C@@H]1OC(=O)[C@H](C(C)C)NC(=O)[C@@H](C(C)C)OC(=O)[C@@H](C)NC(=O)[C@H](CC(C)C)OC(=O)[C@H](C(C)C)NC(=O)[C@@H](C(C)C)OC(=O)[C@@H](C)NC(=O)[C@H](CC(C)C)OC(=O)[C@H](C(C)C)NC(=O)[C@@H](C(C)C)OC(=O)[C@@H](C)NC1=O (stereo in doubt; form 1) | 7.3 | 6.3 | 1 | 7 | 5.3 | 5.7 | 4.4 | 3 | 6.8 | 5.3 | 1 | 5 | No. of suncus vomited (Suncus murinus [16]): 5; No. of vomiting episodes (Suncus murinus [17]): 3; No. of suncus vomited (Suncus murinus [18]): 0; No. of vomiting episodes (Suncus murinus [19]): 8.4; Latency (Suncus murinus [20]): 15 min; No. of suncus vomited (Suncus murinus [21]): 2; No. of vomiting episodes (Suncus murinus [22]): 4; Latency (Suncus murinus [23]): 5.9 min; No. of suncus vomited (Suncus murinus [24]): 0
CC(C)C[C@@H](OC(=O)[C@@H](NC(=O)[C@@H](O)C(C)C)C(C)C)C(=O)N[C@H](C)C(=O)O[C@H](C(=O)N[C@H](C(=O)O[C@H](CC(C)C)C(=O)N[C@H](C)C(=O)O[C@H](C(=O)N[C@H](C(=O)O[C@H](CC(C)C)C(=O)N[C@H](C)C(=O)O)C(C)C)C(C)C)C(C)C)C(C)C |  |  |  |  |  |  |  |  |  |  |  | 12000 | 

From ChEMBL document CHEMBL1128088, “Synthesis and activity of cereulide, a cyclic dodecadepsipeptide ionophore as emetic toxin from Bacillus cereus” (1995)
